These are literature values, as cited in patent US11266615B2, “Pyrimethamine-based pharmaceutical compositions and methods for fabricating thereof” (Harrow IP, LLC, priority 2018, dated 2022).

For the data set the following is noted: background statement.

In the case of `CCc1nc(N)nc(N)c1-c1ccc(Cl)cc1` [pyrimethamine, 5-(4-chlorophenyl)-6-ethyl-pyrimidine-2,4-diamine], the solubility in water entry is “poor”.
